The test system of assay [1] is stHIV-A19. As to the kind of experiment: PrEP protection from high-dose intravenous stHIV-A19 challenge in pigtail macaques. In kind it is in vivo, pigtail macaques (Macaca nemestrina). Here is the method: Sixteen male, purpose-bred pigtail macaques (Macaca nemestrina; ages 4.6–8.5 years at the time of study initiation) were housed at NIH-Bethesda (Supplementary Table S1). All study animals received enrofloxacin (10 mg/kg, administered orally, once per day for 10 days), paromomycin (25 mg/kg, administered orally, twice daily for 7–10 days), and fenbendazole (50 mg/kg administered orally, once per day for 5 days) two weeks to 43 months prior to study initiation. Lenacapavir or drug vehicle (sterile, preservative-free 57.5% w/v polyethylene glycol 300 in water) doses were administered to sedated animals via SC injection into the scapular region such that no more than 2 ml of solution was injected into a single SC site. Animals in the LEN pharmacokinetic evaluation study (N = 6) each received two doses of LEN, both at 15 mg/kg (N = 3) or at 50 mg/kg (N = 3), 6 weeks apart. Animals in the virus challenge experiment each received a single dose of LEN at 25 mg/kg (N = 3, LEN PrEP group) or drug vehicle (N = 4, vehicle control group) 30 days prior to stHIV-A19 challenge, or a cART regimen consisting of tenofovir disoproxil fumarate (TDF), emtricitabine (FTC), and dolutegravir (DTG) (N = 3, TDF/FTC/DTG group), coformulated and administered as previously described[29]^,[30] for 7 days beginning 3 days prior to stHIV-A19 challenge (Supplementary Figure S1). Hair was clipped and skin marked at LEN and vehicle injection sites to allow for subsequent visual and manual assessment and scoring of potential ISRs by non-blinded veterinary care staff. Complete blood counts (CBC) and serum chemistries were monitored prior to and at 2- to 4-week intervals after LEN administration for at least one year. Following the first dose of LEN in the PK study, one animal in the 50-mg/kg dosing group received 7 consecutive days of daily ketoprofen (2 mg/kg) administered intramuscularly for ISR analgesia at veterinary discretion. For the second dose of LEN in the PK study, all animals in the 50-mg/kg dosing group received 5–7 consecutive days of twice daily oral carprofen (2 mg/kg) analgesia administered prophylactically starting on the day of LEN dosing. In the IV challenge PrEP study, all LEN and vehicle control animals received 3–5 consecutive days of twice daily oral carprofen (2 mg/kg) analgesia administered prophylactically starting on the day of injection. For virus challenge, PrEP study animals each received 1 × 10^5 infectious units of stHIV-A19 injected intravenously. After LEN washout, LEN PrEP group animals received a single 50-mg/kg dose of rhesusized depleting anti-CD8α antibody (MT807R1, RRID: AB_2716320, NIH Nonhuman Primate Reagent Resource), administered SC to anesthetized animals.
Simian-tropic HIV was isolated from clarified PTM plasma by centrifugation (21,000×g for 1 h), and the resultant pellet was extracted as described.[31] Pigtail macaque PBMCs were subjected to nucleic acid extraction essentially as previously described for tissues.[32] HIV gag DNA and RNA copies were assessed using a multiplexed qPCR assay, as previously described.[33] Plasma stHIV-A19 vRNA levels are reported as copies/ml of plasma. PBMC-associated stHIV-A19 vDNA levels are reported as copies/10^6 cell equivalents, based on 2 copies of the CCR5 gene per diploid cellular genome.[34]
Plasma specimens collected from all 10 virus challenge animals prior to and at 8 weeks after stHIV-A19 challenge were evaluated for the presence of antibodies specific for HIV-1 by Western blot analysis using the GS HIV-1 Western Blot kit (Bio-Rad, cat #32508) according to the manufacturer’s instructions.
Statistical analyses were performed using R v4.1.1 ((R Core Team, 2021). R: A language and environment for statistical computing. R Foundation for Statistical Computing, Vienna, Austria. URL https://www.R-project.org/). […]

Assay [2] deals with HIV-1. More on the design: method as in PMID 32612233. To be noted: people with HIV-1, monotherapy, 450 mg, after 9 days of treatment; cited from earlier work.
Where [3] appears, read: all 3 LEN PrEP animals, 34 days of monitoring after anti-CD8α antibody at 419 days post-challenge.

The source of these data is PMC10470178, “Long-acting lenacapavir protects macaques against intravenous challenge with simian-tropic HIV” (eBioMedicine, 2023).

For `CC(C)(C#Cc1ccc(-c2ccc(Cl)c3c(NS(C)(=O)=O)nn(CC(F)(F)F)c23)c([C@H](Cc2cc(F)cc(F)c2)NC(=O)Cn2nc(C(F)(F)F)c3c2C(F)(F)[C@@H]2C[C@H]32)n1)S(C)(=O)=O` [LEN, Lenacapavir], in assay [1] (setting [3]), the “PBMC vDNA following CD8 depletion” value was 6.2–11.0 vDNA copies/10^6 PBMC and the “plasma vRNA following CD8 depletion” value was less than 2.8 vRNA copies/ml plasma. Also, in assay [1] (all animals of the group, any time point), the “cell-associated viral DNA (CA-vDNA) in PBMC after stHIV-A19 challenge” value is “vDNA was not detected at any time point”. Moreover, the “plasma vRNA after stHIV-A19 challenge” value in assay [1] (assay threshold 2.8 vRNA copies/ml, LEN ∼370 days follow-up, TDF/FTC/DTG through 120 days post-challenge) is on record as “no plasma vRNA detected at any time point”. Also, the “infection rates compared with vehicle control group” value in assay [1] (each p < 0.03, Fisher's exact test) is given as “significantly lower than in the vehicle control group”. Moreover, the “HIV-1 Western blot serology” value in assay [1] (plasma, 8 weeks after stHIV-A19 challenge, all animals) was “remained seronegative”. Also, in assay [1] (single IV challenge 1 × 10^5 i.u., LEN 25 mg/kg SC 30 days before (N = 3), 3-drug regimen daily SC for 7 days from 3 days before (N = 3)), the “protection from infection after stHIV-A19 challenge” value is given as “protected PTMs from infection”. Further, in assay [2], the “maximum reductions in plasma viral loads” value was greater than 100 fold.
